Where two headings read alike, the source gives them in different places.
Key:
sigma-1 receptor = target: T1, sigma-1 receptor (Cavia porcellus, UniProt Q60492); assay: Sigma-1 receptor binding assay, [3H]-(+)-pentazocine displacement in guinea pig brain membranes; settings: for IC50: radioligand [3H]-(+)-pentazocine 3.0 nM, 150 min at 37° C., read-out: IC50 (inhibitory concentration); for Ki: read-out: Ki (binding affinity)
T1 construct: from tissue; host or cells: guinea pig brain membranes
T1 sequence (Q60492 whole entry): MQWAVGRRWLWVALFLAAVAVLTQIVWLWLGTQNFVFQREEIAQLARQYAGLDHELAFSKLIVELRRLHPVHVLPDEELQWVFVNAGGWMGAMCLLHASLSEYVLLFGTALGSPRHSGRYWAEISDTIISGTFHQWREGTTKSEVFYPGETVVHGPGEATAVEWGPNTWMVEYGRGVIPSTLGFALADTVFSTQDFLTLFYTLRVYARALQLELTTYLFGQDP

SMILES	IC50 (sigma-1 receptor; guinea pig brain membranes)	also measured
Cc1cc(OCCN2CCOCC2)nn1-c1ccc2ccc(O)cc2c1 (hydrate or solvate) [Compound 4, 4-{2-[1-(7-hydroxynaphthalen-2-yl)-5-methyl-1H-pyrazol-3-yloxy]ethyl}morpholine chlorhydrate]		melting point: 103 to 107 °C
Cc1cc(OCCN2CCOCC2)nn1-c1ccc2c(c1)C=CC(O)C2O (stereo not shown) [Compound 1, 6-(5-methyl-3-(2-morpholinoethoxy)-1H-pyrazol-1-yl)-1,2-dihydronaphthalene-1,2-diol]	> 1000 nM	
Cc1cc(OCCN2CCOCC2)nn1-c1ccc2c(O)cccc2c1 [Compound 3, 4-{2-[1-(5-hydroxynaphthalen-2-yl)-5-methyl-1H-pyrazol-3-yloxy]ethyl}morpholine]		Ki (sigma-1 receptor): 329 nM
Cc1cc(OCCNCCO)nn1-c1ccc2ccccc2c1 [Compound 5, 2-(2-(5-methyl-1-(naphthalen-2-yl)-1H-pyrazol-3-yloxy)ethylamino)ethanol chlorhydrate]		Ki (sigma-1 receptor; guinea pig brain membranes, [3H]-(+)-pentazocine 3.0 nM, calculated from IC50 by the Cheng-Prussof equation): 102 nM

More lines, main results first:

IC50 (sigma-1 receptor; guinea pig brain membranes)	SMILES	also measured
> 1000 nM	Cc1cc(OCCN2CCOCC2)nn1-c1ccc2cc(O)ccc2c1 [Compound 2, 4-{2-[1-(6-hydroxynaphthalen-2-yl)-5-methyl-1H-pyrazol-3-yloxy]ethyl}morpholine chlorhydrate]	
> 1000 nM	Cc1cc(OCCN2CCOCC2)nn1-c1ccc2ccc(O)cc2c1 [Compound 4, 4-{2-[1-(7-hydroxynaphthalen-2-yl)-5-methyl-1H-pyrazol-3-yloxy]ethyl}morpholine chlorhydrate]	
> 1000 nM	Cc1cc(OCC[N+]2([O-])CCOCC2)nn1-c1ccc2ccccc2c1 [Compound 6, 4-(2-(5-methyl-1-(naphthalen-2-yl)-1H-pyrazol-3-yloxy)ethyl)morpholine 4-oxide]	

Source: patent US8492425B2, “5-methyl-1-(naphthalen-2-yl)-1H-pyrazoles useful as sigma receptor inhibitors” (Laboratories Del Dr. Esteve, S.A., priority 2008, dated 2013)
